{"source": "patent US20090123377A1", "about": "“Method for Testing Substances or Mixtures of Substances,Use of Said Method and Corresponding Test Kits” (BASF AKTIENGESELLSCHAFT, priority 2005, published 2009)", "key": {"L-FABP": {"test_system": "L-FABP", "conditions": "rat, in vivo"}, "[1]": {"test_system": "liver fatty acid binding protein (L-FABP)", "experiment": "Proteomic analysis (2D gel electrophoresis) of L-FABP expression in liver of exposed rats", "conditions": "for L-FABP (PHEN_M_ID=3368, ETHI_F_ID=4302, HEXA_F_ID=4425) spot under the influence of treatment: 2D gel, rat liver, after 10 d (RUN2), PHEN_M male, ETHI_F and HEXA_F female rats; for amount of L-FABP in the liver, early change: after only a few hours of exposure, male animals (phenobarbital), females (alpha-hexachlorocyclohexane); for expression in the liver of L-FABP (ETHI_F_ID 4302) compared with the controls: longer exposure time and higher dosage, dose-dependent, statistical analysis of 2D gels"}, "[2]": {"test_system": "liver fatty acid binding protein (L-FABP)", "conditions": "rat, in vivo"}}, "note": "Like-named read-outs stand apart in the source and are kept apart here."}
{"compound": "Cc1ccc(N)cc1N", "note": "[2,4-diaminotoluene]", "values": [{"measurement": "L-FABP level by Western blotting", "setting": "L-FABP", "result": "no change in the L-FABP level"}]}
{"compound": "Cc1c(N)cccc1N", "note": "[2,6-diaminotoluene]", "values": [{"measurement": "L-FABP level by Western blotting", "setting": "L-FABP", "result": "no change in the L-FABP level"}]}
{"compound": "Cl[C@H]1[C@H](Cl)[C@H](Cl)[C@@H](Cl)[C@H](Cl)[C@H]1Cl", "note": "[alpha-hexachlorocyclohexane]", "values": [{"measurement": "L-FABP level by Western blotting", "setting": "L-FABP", "result": "confirm the results of the proteomic analysis"}, {"measurement": "L-FABP (PHEN_M_ID=3368, ETHI_F_ID=4302, HEXA_F_ID=4425) spot under the influence of treatment", "setting": "[1]", "result": "disappears"}, {"measurement": "amount of L-FABP in the liver, early change", "setting": "[1]", "result": "changed"}, {"measurement": "expression in the liver of L-FABP (ETHI_F_ID 4302) compared with the controls", "setting": "[1]", "result": "significantly less expression"}]}
{"compound": "C#C[C@]1(O)CC[C@H]2[C@@H]3CCc4cc(O)ccc4[C@H]3CC[C@@]21C", "note": "[ethinylestradiol]", "values": [{"measurement": "L-FABP (PHEN_M_ID=3368, ETHI_F_ID=4302, HEXA_F_ID=4425) spot under the influence of treatment", "setting": "[2]", "result": "disappears"}, {"measurement": "expression in the liver of L-FABP (ETHI_F_ID 4302) compared with the controls", "setting": "[2]", "result": "significantly less expression"}]}
{"compound": "c1ccoc1", "note": "[furan]", "values": [{"measurement": "L-FABP level by Western blotting", "setting": "L-FABP", "result": "decrease in L-FABP"}]}
{"compound": "CCC1(c2ccccc2)C(=O)NC(=O)NC1=O", "note": "[phenobarbital]", "values": [{"measurement": "L-FABP level by Western blotting", "setting": "L-FABP", "result": "confirm the results of the proteomic analysis"}, {"measurement": "L-FABP (PHEN_M_ID=3368, ETHI_F_ID=4302, HEXA_F_ID=4425) spot under the influence of treatment", "setting": "[1]", "result": "disappears"}, {"measurement": "amount of L-FABP in the liver, early change", "setting": "[1]", "result": "changed"}, {"measurement": "expression in the liver of L-FABP (ETHI_F_ID 4302) compared with the controls", "setting": "[1]", "result": "significantly less expression"}]}
{"compound": "ClC(Cl)(Cl)Cl", "note": "[tetrachloromethane]", "values": [{"measurement": "L-FABP level by Western blotting", "setting": "L-FABP", "result": "decrease in L-FABP"}]}
